In brackets after ≈: the same amount, converted by molar mass.
Experiments:
[1] = system: Staphylococcus aureus; assay: Antibacterial activity against methicillin resistant Staphylococcus aureus; type: functional
[2] = biological target: T1, MecA (Staphylococcus aureus, UniProt Q7DHH4); assay: Binding affinity to Staphylococcus aureus ATCC 43300 PBP2a
T1 sequence (Q7DHH4 whole entry): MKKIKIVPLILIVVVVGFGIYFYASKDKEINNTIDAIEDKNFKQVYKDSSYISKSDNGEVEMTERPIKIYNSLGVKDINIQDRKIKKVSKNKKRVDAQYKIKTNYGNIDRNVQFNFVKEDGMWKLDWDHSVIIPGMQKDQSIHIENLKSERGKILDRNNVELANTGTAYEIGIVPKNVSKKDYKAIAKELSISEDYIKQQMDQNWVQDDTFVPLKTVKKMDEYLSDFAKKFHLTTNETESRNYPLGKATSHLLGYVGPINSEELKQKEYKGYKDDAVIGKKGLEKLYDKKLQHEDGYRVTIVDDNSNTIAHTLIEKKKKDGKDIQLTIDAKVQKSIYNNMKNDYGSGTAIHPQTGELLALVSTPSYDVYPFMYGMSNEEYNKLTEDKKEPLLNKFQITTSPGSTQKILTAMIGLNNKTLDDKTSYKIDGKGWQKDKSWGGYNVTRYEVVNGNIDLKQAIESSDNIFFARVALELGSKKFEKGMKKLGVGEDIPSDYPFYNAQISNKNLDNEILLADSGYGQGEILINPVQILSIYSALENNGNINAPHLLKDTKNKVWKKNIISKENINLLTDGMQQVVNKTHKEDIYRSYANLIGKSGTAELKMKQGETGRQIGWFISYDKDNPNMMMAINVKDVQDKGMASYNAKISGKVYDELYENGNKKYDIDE

[3] = system: Staphylococcus aureus; assay: Antibacterial activity against methicillin resistant Staphylococcus aureus ATCC 43300; type: functional
[4] = system: Staphylococcus aureus; assay: Antibacterial activity against methicillin resistant Staphylococcus aureus mp 1; type: functional
[5] = system: Staphylococcus aureus; assay: Potentiation of oxacillin against methicillin resistant Staphylococcus aureus assessed as fold increase in oxacillin activity; type: functional
[6] = system: Staphylococcus aureus; assay: Potentiation of oxacillin against methicillin resistant Staphylococcus aureus OM481 assessed as fold increase in oxacillin activity; type: functional
[7] = system: Staphylococcus aureus; assay: Potentiation of oxacillin against methicillin resistant Staphylococcus aureus OM584 assessed as fold increase in oxacillin activity; type: functional
[8] = system: Staphylococcus aureus; assay: Potentiation of oxacillin against methicillin resistant Staphylococcus aureus OM623 assessed as fold increase in oxacillin activity; type: functional
[9] = system: Staphylococcus aureus; assay: Potentiation of oxacillin against methicillin resistant Staphylococcus aureus OM505 assessed as fold increase in oxacillin activity; type: functional
[10] = biological target: T2, Penicillin-binding protein 2x (Streptococcus pneumoniae serotype 4 (strain ATCC BAA-334 / TIGR4), UniProt P14677); assay: Binding affinity to Streptococcus pneumoniae PBP2x
T2 sequence (P14677 whole entry): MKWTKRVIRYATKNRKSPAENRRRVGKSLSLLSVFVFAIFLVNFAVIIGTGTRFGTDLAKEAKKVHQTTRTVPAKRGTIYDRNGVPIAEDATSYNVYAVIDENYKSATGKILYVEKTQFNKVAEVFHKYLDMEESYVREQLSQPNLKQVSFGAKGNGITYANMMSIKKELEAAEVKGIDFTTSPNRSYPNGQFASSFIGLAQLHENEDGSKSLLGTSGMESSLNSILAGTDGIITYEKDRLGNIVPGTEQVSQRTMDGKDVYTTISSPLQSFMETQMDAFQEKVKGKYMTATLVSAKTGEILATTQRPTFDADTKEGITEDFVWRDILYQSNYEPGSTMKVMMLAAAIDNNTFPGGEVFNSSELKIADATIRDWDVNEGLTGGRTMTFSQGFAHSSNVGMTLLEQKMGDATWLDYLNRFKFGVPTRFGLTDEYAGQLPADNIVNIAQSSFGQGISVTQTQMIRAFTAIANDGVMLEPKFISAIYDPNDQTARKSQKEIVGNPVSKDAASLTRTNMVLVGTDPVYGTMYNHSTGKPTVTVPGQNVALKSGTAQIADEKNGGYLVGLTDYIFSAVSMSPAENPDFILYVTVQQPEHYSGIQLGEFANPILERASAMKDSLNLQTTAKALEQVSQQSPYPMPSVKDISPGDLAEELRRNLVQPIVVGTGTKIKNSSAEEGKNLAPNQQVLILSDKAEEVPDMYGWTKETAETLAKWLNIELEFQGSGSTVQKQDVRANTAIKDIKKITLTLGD

[11] = system: Enterococcus faecium; assay: Antibacterial activity against vancomycin-resistant Enterococcus faecium; type: functional
[12] = system: Staphylococcus aureus; assay: Antibacterial activity against methicillin sensitive Staphylococcus aureus ATCC 29213; type: functional
[13] = biological target: T1, MecA; assay: Binding affinity to methicillin resistant Staphylococcus aureus PBP2a by MST method
[14] = system: Staphylococcus aureus; assay: Antibacterial activity against Vancomycin-resistant Staphylococcus aureus 2; type: functional
[15] = system: Staphylococcus aureus; assay: Antibacterial activity against methicillin sensitive Staphylococcus aureus NRS123; type: functional
[16] = system: Staphylococcus aureus; assay: Antibacterial activity against methicillin sensitive Staphylococcus aureus NRS120; type: functional
[17] = biological target: T1, MecA; assay: Inhibition of Staphylococcus aureus PBP2a
[18] = system: Staphylococcus aureus; assay: Antibacterial activity against methicillin sensitive Staphylococcus aureus NRS70; type: functional
[19] = system: Staphylococcus aureus; assay: Antibacterial activity against methicillin sensitive Staphylococcus aureus NRS119; type: functional
[20] = system: Staphylococcus aureus; assay: Antibacterial activity against Vancomycin-resistant Staphylococcus aureus 1; type: functional
[21] = system: Staphylococcus aureus; assay: Antibacterial activity against methicillin sensitive Staphylococcus aureus NRS100; type: functional
[22] = biological target: T3, Penicillin-binding protein 1 (Staphylococcus aureus, UniProt Q53725); assay: Inhibition of Staphylococcus aureus PBP1
T3 sequence (Q53725 whole entry): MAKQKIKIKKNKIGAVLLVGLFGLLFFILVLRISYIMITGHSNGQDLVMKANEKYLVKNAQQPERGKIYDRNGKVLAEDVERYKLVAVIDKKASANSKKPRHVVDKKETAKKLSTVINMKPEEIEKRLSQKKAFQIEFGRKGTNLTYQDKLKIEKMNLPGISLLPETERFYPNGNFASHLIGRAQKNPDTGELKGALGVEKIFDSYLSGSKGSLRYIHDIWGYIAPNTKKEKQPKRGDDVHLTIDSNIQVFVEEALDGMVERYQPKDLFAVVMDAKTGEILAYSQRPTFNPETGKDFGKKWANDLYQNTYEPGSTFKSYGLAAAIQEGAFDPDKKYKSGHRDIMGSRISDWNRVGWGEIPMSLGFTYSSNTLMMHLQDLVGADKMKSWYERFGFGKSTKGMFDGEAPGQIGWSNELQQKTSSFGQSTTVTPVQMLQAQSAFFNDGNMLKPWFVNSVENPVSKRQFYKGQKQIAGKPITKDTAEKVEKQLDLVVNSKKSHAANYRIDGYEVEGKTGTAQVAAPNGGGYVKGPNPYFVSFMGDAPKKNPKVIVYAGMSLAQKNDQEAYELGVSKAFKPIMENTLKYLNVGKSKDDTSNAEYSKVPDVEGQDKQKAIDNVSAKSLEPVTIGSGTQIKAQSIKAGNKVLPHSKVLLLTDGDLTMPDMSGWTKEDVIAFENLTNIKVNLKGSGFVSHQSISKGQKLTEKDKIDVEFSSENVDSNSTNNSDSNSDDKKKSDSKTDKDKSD

[23] = system: Staphylococcus aureus; assay: Antibacterial activity against methicillin sensitive Staphylococcus aureus NRS128; type: functional
[24] = biological target: T1, MecA; assay: Displacement of [3H]-penicillin from Staphylococcus aureus PBP2a
[25] = system: Staphylococcus aureus; assay: Antibacterial activity against methicillin resistant Staphylococcus aureus TMHS-5007; type: functional
[26] = Binding affinity to methicillin sensitive Staphylococcus aureus PBP3
[27] = Binding affinity to methicillin sensitive Staphylococcus aureus PBP4
[28] = system: Staphylococcus aureus; assay: Antibacterial activity against methicillin resistant Staphylococcus aureus TMHS-5006; type: functional
[29] = system: Staphylococcus aureus; assay: Antibacterial activity against methicillin resistant Staphylococcus aureus TMHS-3125; type: functional
[30] = Binding affinity to methicillin sensitive Staphylococcus aureus PBP2
[31] = system: Staphylococcus aureus; assay: Antibacterial activity against methicillin resistant Staphylococcus aureus 13101; type: functional
[32] = biological target: T3, Penicillin-binding protein 1; assay: Binding affinity to methicillin sensitive Staphylococcus aureus PBP1
[33] = biological target: T1, MecA; assay: Binding affinity to methicillin resistant Staphylococcus aureus PBP2a
[34] = system: Staphylococcus aureus; assay: Antibacterial activity against methicillin resistant Staphylococcus aureus 4977; type: functional
[35] = system: Staphylococcus aureus; assay: Antibacterial activity against methicillin resistant Staphylococcus aureus PL 1; type: functional

C#Cc1ccc(/C=C/c2nc3ccccc3c(=O)n2-c2cccc(C(=O)O)c2)cc1
MIC [1]: 0.03 µg/mL (≈ 0.0764 µM)

CCCOc1ccc2cc(C(=O)Nc3ccc(Br)cc3C(=O)O)ccc2c1
IC50 [2]: 210 µM | MIC [3]: 128 µg/mL (≈ 299 µM) | MIC [4]: 128 µg/mL (≈ 299 µM)

C=C1CCC[C@@H]2Nc3ccc(Br)cc3[C@]12CCNS(=O)(=O)c1ccc(Cl)cc1
fold change (FC) [5]: 128

O=C(O[C@@H]1O[C@@H]2COC(=O)c3cc(O)c(O)c(O)c3-c3c(cc(O)c(O)c3O)C(=O)O[C@H]([C@H]1O)[C@@H]2O)c1cc(O)c(O)c(O)c1 [CORILAGIN]
fold change (FC) [6]: 100 | fold change (FC) [7]: 100 | fold change (FC) [8]: 100 | fold change (FC) [9]: 100

CCCOc1cccc(C(=O)Nc2ccccc2C(=O)O)c1
IC50 [2]: 910 µM | MIC [3]: 512 µg/mL (≈ 1710 µM) | MIC [4]: 512 µg/mL (≈ 1710 µM)

CCCCOc1ccc2cc(S(=O)(=O)Nc3ccccc3C(=O)O)ccc2c1
IC50 [2]: 97 µM | MIC [3]: 32 µg/mL (≈ 80.1 µM) | MIC [4]: 32 µg/mL (≈ 80.1 µM) | IC50 [10]: 391 µM

Nc1ccc(-c2nc(-c3ccc(Oc4ccc(C(F)(F)F)cc4)cc3)no2)cc1
MIC [1]: 1 µg/mL (≈ 2.52 µM) | MIC [11]: 1 µg/mL (≈ 2.52 µM)

Nc1nc(/C(=N/O)C(=O)N[C@@H]2C(=O)N3C(C(=O)O)=C(/C=C4\CCN([C@@H]5CCNC5)C4=O)CS[C@H]23)ns1 [CEFTOBIPROLE]
MIC [1]: 0.5 µg/mL (≈ 0.935 µM)

Oc1ccc(-c2nc(-c3ccc(Oc4ccc(C(F)(F)F)cc4)cc3)no2)cc1
MIC [1]: 1 µg/mL (≈ 2.51 µM) | MIC [11]: 1 µg/mL (≈ 2.51 µM)

O=c1c2ccccc2nc(/C=C/c2ccc([N+](=O)[O-])cc2)n1-c1cccc(O)c1
MIC [12]: 2 µg/mL (≈ 5.19 µM)

CC(=O)/C(=C/c1cn(CC(=O)N2CCCCC2)c2ccccc12)n1cc([N+](=O)[O-])nc1C
MIC [1]: 1 µg/mL (≈ 2.3 µM)

CCCOc1cccc(C(=O)Nc2ccc(C)cc2C(=O)O)c1
IC50 [2]: 680 µM | MIC [3]: 256 µg/mL (≈ 817 µM) | MIC [4]: 256 µg/mL (≈ 817 µM)

COC(=O)C1=C[C@]2(C)C[C@@]34CC[C@@H]5[C@H](C=CC(=O)C5(C)C)[C@]35OC[C@]14[C@](C)(CC2=O)O5
MIC [1]: 32 µg/mL (≈ 75 µM) | Kd [13]: 18.4 µM

Oc1ccc(-c2nc(-c3ccc(Oc4ccccc4)cc3)no2)cc1
MIC [1]: 1 µg/mL (≈ 3.03 µM) | MIC [11]: 1 µg/mL (≈ 3.03 µM)

N#Cc1ccc(/C=C/c2nc3ccccc3c(=O)n2-c2cccc(C(=O)O)c2)cc1
MIC [12]: 2 µg/mL (≈ 5.08 µM) | MIC [14]: 2 µg/mL (≈ 5.08 µM) | MIC [15]: 2 µg/mL (≈ 5.08 µM) | MIC [16]: 2 µg/mL (≈ 5.08 µM) | IC50 [17]: 356 µM | MIC [18]: 2 µg/mL (≈ 5.08 µM) | MIC [19]: 2 µg/mL (≈ 5.08 µM) | MIC [20]: 2 µg/mL (≈ 5.08 µM) | MIC [21]: 2 µg/mL (≈ 5.08 µM) | IC50 [22]: 78 µg/mL (≈ 198 µM) | MIC [23]: 2 µg/mL (≈ 5.08 µM)

C[C@@H](O)[C@H]1C(=O)N2C(C(=O)[O-])=C(c3ccc4c(c3)-c3ccc(C[n+]5ccn(C)c5)cc3C4=O)[C@H](C)[C@H]12
MIC [1]: 16 µg/mL (≈ 33.1 µM) | IC50 [24]: 2.48 µM

CCCOc1cccc(C(=O)Nc2ccc(Br)cc2C(=O)O)c1
IC50 [2]: 230 µM | MIC [3]: 32 µg/mL (≈ 84.6 µM) | MIC [4]: 32 µg/mL (≈ 84.6 µM)

CC1(C)S[C@@H]2[C@H](N)C(=O)N2[C@H]1C(=O)O
IC50 [17]: 7000 µM

O=C(O[C@H]1[C@@H]2OC(=O)c3cc(O)c(O)c(O)c3-c3c(cc(O)c(O)c3O)C(=O)OC[C@H]2OC(O)[C@@H]1OC(=O)c1cc(O)c(O)c(O)c1)c1cc(O)c(O)c(O)c1 (stereo partly drawn)
fold change (FC) [6]: 100 | fold change (FC) [7]: 100 | fold change (FC) [8]: 100 | fold change (FC) [9]: 100

CCO/N=C(\C(=O)N[C@@H]1C(=O)N2C(C(=O)[O-])=C(Sc3nc(-c4cc[n+](C)cc4)cs3)CS[C@H]12)c1nsc(N)n1 [CEFTAROLINE]
MIC [25]: > 32 µg/mL | IC50 [26]: 0.1 µg/mL (≈ 0.165 µM) | IC50 [27]: > 1 µg/mL | MIC [28]: > 32 µg/mL | MIC [29]: > 32 µg/mL | IC50 [30]: 0.1 µg/mL (≈ 0.165 µM) | MIC [31]: 2 µg/mL (≈ 3.31 µM) | IC50 [32]: 0.165 µM | IC50 [33]: 0.265 µM | MIC [34]: 2 µg/mL (≈ 3.31 µM)

C[C@@H](NC(=O)c1c(F)cccc1-c1ccccc1)B(O)O
MIC [35]: 32 µg/mL (≈ 111 µM) | MIC [3]: 32 µg/mL (≈ 111 µM)

Source: ChEMBL document CHEMBL5244239, “Penicillin binding protein 2a: An overview and a medicinal chemistry perspective” (Eur J Med Chem, 2020)
